Measured values taken from US9783552B2, “Soluble guanylate cyclase activators” (MERCK SHARP & DOHME CORP., priority 2013, dated 2017).

Target: T1, sGC α1/β1 heterodimer (Homo sapiens, UniProt Q02108+Q02153)
T1 construct: expressed in transfected cells
T1 sequence (Q02108 1-690): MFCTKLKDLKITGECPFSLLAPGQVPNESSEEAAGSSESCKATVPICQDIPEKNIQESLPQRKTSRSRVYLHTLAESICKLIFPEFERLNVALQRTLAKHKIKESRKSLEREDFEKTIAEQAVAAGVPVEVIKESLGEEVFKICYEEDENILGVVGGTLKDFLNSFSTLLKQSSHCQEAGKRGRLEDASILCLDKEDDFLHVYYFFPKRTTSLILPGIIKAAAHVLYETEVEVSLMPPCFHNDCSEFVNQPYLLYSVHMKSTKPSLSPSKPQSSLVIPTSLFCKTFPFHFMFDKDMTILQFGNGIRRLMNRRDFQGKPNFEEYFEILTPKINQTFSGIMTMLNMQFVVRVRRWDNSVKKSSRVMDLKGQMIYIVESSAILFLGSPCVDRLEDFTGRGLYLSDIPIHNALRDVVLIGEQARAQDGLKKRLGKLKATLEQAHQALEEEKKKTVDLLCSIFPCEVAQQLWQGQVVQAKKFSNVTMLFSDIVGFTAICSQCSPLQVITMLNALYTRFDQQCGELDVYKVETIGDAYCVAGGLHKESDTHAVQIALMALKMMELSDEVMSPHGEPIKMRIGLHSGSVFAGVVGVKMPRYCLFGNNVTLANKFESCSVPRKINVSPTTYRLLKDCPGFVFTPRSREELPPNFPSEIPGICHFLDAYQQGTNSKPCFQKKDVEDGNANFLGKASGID
T1 sequence (Q02153 1-619): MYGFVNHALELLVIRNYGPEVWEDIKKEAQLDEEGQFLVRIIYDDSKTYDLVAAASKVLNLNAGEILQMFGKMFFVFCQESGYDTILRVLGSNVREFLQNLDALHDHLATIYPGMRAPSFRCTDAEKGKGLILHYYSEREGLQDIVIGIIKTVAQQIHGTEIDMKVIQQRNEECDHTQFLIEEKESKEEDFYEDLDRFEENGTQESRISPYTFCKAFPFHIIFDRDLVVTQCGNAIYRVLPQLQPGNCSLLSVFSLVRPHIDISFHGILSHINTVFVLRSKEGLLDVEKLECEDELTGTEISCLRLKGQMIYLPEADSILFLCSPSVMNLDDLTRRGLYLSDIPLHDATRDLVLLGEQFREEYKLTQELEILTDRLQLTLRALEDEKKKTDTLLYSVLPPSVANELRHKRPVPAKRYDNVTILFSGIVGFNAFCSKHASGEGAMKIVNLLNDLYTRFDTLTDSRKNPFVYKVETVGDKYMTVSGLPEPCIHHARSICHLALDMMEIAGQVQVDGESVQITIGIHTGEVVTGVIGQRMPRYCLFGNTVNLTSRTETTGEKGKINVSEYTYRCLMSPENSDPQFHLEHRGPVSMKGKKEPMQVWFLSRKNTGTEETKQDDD
Assay: Cell-Based sGC Functional Assay (CASA Assay)
Conditions: CHO-K1/sGC cells; for EC50: intracellular cGMP by HTRF, 1 hr at 37° C., IP from 4P fit, presence or absence of 1 μM DETA-NO not given; for Emax: cGMP as percentage of maximum cGMP production of Compound A (=100% activation), read-out: % ACT (percent activation)
From the text: Biological Assays: Cell-Based sGC Functional Assay (CASA Assay)
sGC is a heme-containing enzyme that converts GTP to secondary messenger cGMP. Increases in cGMP levels affect several physiological processes including vasorelaxation through multiple downstream pathways. […] Heme-dependent activators (HDAs) preferentially activate sGC containing a ferrous heme group. To determine the effect of sGC activators on enzyme activity, the CASA assay was developed to monitor the generation of cGMP in a cell line that stably expresses the heterodimeric sGC protein.
A CHO-K1 cell line stably expressing the sGC α1/β1 heterodimer was generated using a standard transfection protocol. CHO-K1 cells were transfected with plasmids pIREShyghsGCα1 and pIRESneo-hsGCβ1 simultaneously using FUGENE reagent. Clones that stably express both subunits were selected with hygromycin and neomycin for ˜2 weeks. Clone #7 was chosen for the assay and was designated CHO-K1/sGC. CHO-K1/sGC cells were maintained in F-K12 medium containing 10% heat-inactivated Fetal Bovine Serum (FBS), 100 μg/mL penicillin/streptomycin, 0.5 mg/mL hygromycin and 0.25 mg/mL G418. The cells were then cryopreserved in LN2. On the day of the assay, cells were thawed and resuspended in EBSS Assay Buffer (EAB, Sigma, E3024) supplemented with 5 mM MgCl2, 10 mM HEPES (4-(2-hydroxyethyl)piperazine-1-ethanesulfonic acid) and 0.05% BSA (bovine serum albumin) and cell density was then adjusted to 4×10^5/mL with EAB. IBMX (3-isobutyl-1-methylxanthin, 0.5 mM) was added to inhibit degradation of cGMP. Compounds were diluted from DMSO stock solutions and added to the assay at a final DMSO concentration of 2.5%. Cells were incubated with compounds in the presence and absence of 1 μM of Diethylenetriamine/nitric oxide adduct (DETA-NO; Sigma, 17018) for 1 hr at 37° C. At the end of the incubation period, the reaction was terminated and the cells were lysed with the detection reagents from Cisbio Kits. The level of intracellular cGMP was determined using an HTRF-based assay kit (CisBio, 62GM2PEC), which detects the displacement of a fluorescence labeled cGMP from its specific antibody. The cGMP produced by test compounds was directly compared to the maximum cGMP production (this value was set to equal 100% activation) of the published sGC-HDA Compound A:
[drawing 123] (Example 1 in WO 2010/065275, published Jun. 10, 2010). The test compounds' activity was then expressed as a percentage of Compound A, the standard in every experiment. This percent activation was calculated either in the presence or absence of DETA-NO which was then plotted. IP and maximum fold induction was derived using ADA analysis software for 4P fit.

Compound | EC50 [nM] | Emax [%]
CCn1ncc2c(-c3nc(N)c4c(n3)NC(=O)C4(C(=O)NC3CC3)C3CC3)nc(CCC(F)(F)C(F)(F)F)nc21 (single isomer, unassigned) [Example 38, 4-Amino-N,5-dicyclopropyl-2-(1-ethyl-6-(3,3,4,4,4-pentafluorobutyl)-1H-pyrazolo[3,4-d]pyrimidin-4-yl)-6-oxo-6,7-dihydro-5H-pyrrolo[2,3-d]pyrimidine-5-carboxamide] | 648 | 112
[2H]C([2H])([2H])n1ncc2c(-c3nc(N)c4c(n3)NC(=O)C4(C)c3cccc(OC)c3)nc(CCC(F)(F)C(F)(F)F)nc21 (single isomer, unassigned) [Example 14, 4-Amino-5-(3-methoxyphenyl)-5-methyl-2-(6-(3,3,4,4,4-pentafluorobutyl)-1-trideuteriomethyl-1H-pyrazolo[3,4-d]pyrimidin-4-yl)-5H-pyrrolo[2,3-d]pyrimidin-6(7H)-one] | 21 | 110
C#CC1(CC)C(=O)Nc2nc(-c3nc(CCC(F)(F)C(F)(F)F)nc4c3cnn4C)nc(N)c21 (single isomer, unassigned) [Example 23, 4-Amino-5-ethyl-5-ethynyl-2-(1-methyl-6-(3,3,4,4,4-pentafluorobutyl)-1H-pyrazolo[3,4-d]pyrimidin-4-yl)-5H-pyrrolo[2,3-d]pyrimidin-6(7H)-one] | 49 | 106
[2H]C([2H])([2H])n1ccc2c(-c3nc(N)c4c(n3)NC(=O)C4(C)c3ccccc3)nc(CCC(F)(F)C(F)(F)F)nc21 (single isomer, unassigned) [Example 60, 4-Amino-5-methyl-2′-(3,3,4,4,4-pentafluorobutyl)-5-phenyl-7′-trideuteriomethyl-5H,7′H-[2,4′-bipyrrolo[2,3-d]pyrimidin]-6(7H)-one] | 47 | 106
Cn1ncc2c(-c3nc(N)c4c(n3)NC(=O)C4(C)c3ccc(F)cc3)nc(CCC(F)(F)F)nc21 (single isomer, unassigned) [Example 11, 4-Amino-5-(4-fluorophenyl)-5-methyl-2-(1-methyl-6-(3,3,3-trifluoropropyl)-1H-pyrazolo[3,4-d]pyrimidin-4-yl)-5H-pyrrolo[2,3-d]pyrimidin-6(7H)-one] | 146 | 121
[2H]C([2H])([2H])n1ncc2c(-c3nc(N)c4c(n3)NC(=O)C4(C(=O)NCC)C3CC3)nc(CCC(F)(F)C(F)(F)F)nc21 (single isomer, unassigned) [Example 29, 4-Amino-5-cyclopropyl-N-ethyl-2-(6-(3,3,4,4,4-pentafluorobutyl)-1-trideuteriomethyl-1H-pyrazolo[3,4-d]pyrimidin-4-yl)-6-oxo-6,7-dihydro-5H-pyrrolo[2,3-d]pyrimidine-5-carboxamide] | 135 | 131
Cn1ccc2c(-c3nc(N)c4c(n3)NC(=O)C4(C)C)nc(CCC(F)(F)C(F)(F)F)nc21 [Example 63, 4-Amino-5,5,7′-trimethyl-2′-(3,3,4,4,4-pentafluorobutyl)-5H,7′H-[2,4′-bipyrrolo[2,3-d]pyrimidin]-6(7H)-one] | 502 | 76
[2H]C([2H])([2H])n1ncc2c(-c3nc(N)c4c(n3)NC(=O)C4(CC)C(N)=O)nc(CCC(F)(F)C(F)(F)F)nc21 (single isomer, unassigned) [Example 36, 4-Amino-5-ethyl-2-(6-(3,3,4,4,4-pentafluorobutyl)-1-trideuteriomethyl-1H-pyrazolo[3,4-d]pyrimidin-4-yl)-6-oxo-6,7-dihydro-5H-pyrrolo[2,3-d]pyrimidine-5-carboxamide] | 878 | 121
CCOC(=O)C1(C2CC2)C(=O)Nc2nc(-c3nc(CCC(F)(F)C(F)(F)F)nc4c3cnn4C)nc(N)c21 (single isomer, unassigned) [Example 26, Ethyl 4-amino-5-cyclopropyl-2-(1-methyl-6-(3,3,4,4,4-pentafluorobutyl)-1H-pyrazolo[3,4-d]pyrimidin-4-yl)-6-oxo-6,7-dihydro-5H-pyrrolo[2,3-d]pyrimidine-5-carboxylate] | 830 | 93
CC1(c2ccccc2)C(=O)Nc2nc(-c3nc(CCC(F)(F)C(F)(F)F)nc4[nH]ccc34)nc(N)c21 (single isomer, unassigned) [Example 65, 4-Amino-5-methyl-2′-(3,3,4,4,4-pentafluorobutyl)-5-phenyl-5H,7′H-[2,4′-bipyrrolo[2,3-d]pyrimidin]-6(7H)-one] | 255 | 102
Cn1ncc2c(-c3nc(N)c4c(n3)NC(=O)C4(C)c3ccc(F)cc3)nc(CC3CC(F)(F)C3)nc21 (single isomer, unassigned) [Example 5, 4-Amino-2-(6-((3,3-difluorocyclobutyl)methyl)-1-methyl-1H-pyrazolo[3,4-d]pyrimidin-4-yl)-5-(4-fluorophenyl)-5-methyl-5H-pyrrolo[2,3-d]pyrimidin-6(7H)-one] | 53 | 122
COc1ccc(C2(C)C(=O)Nc3nc(-c4nc(CCCC(F)(F)F)nc5c4cnn5C)nc(N)c32)cc1F (single isomer, unassigned) [Example 15, 4-Amino-5-(3-fluoro-4-methoxyphenyl)-5-methyl-2-(1-methyl-6-(4,4,4-trifluorobutyl)-1H-pyrazolo[3,4-d]pyrimidin-4-yl)-5H-pyrrolo[2,3-d]pyrimidin-6(7H)-one] | 52 | 113
[2H]C([2H])([2H])n1ncc2c(-c3nc(N)c4c(n3)NC(=O)C4(C)C#C)nc(CCC(F)(F)C(F)(F)F)nc21 (single isomer, unassigned) [Example 22, 4-Amino-5-ethynyl-5-methyl-2-(6-(3,3,4,4,4-pentafluorobutyl)-1-trideuteriomethyl-1H-pyrazolo[3,4-d]pyrimidin-4-yl)-5H-pyrrolo[2,3-d]pyrimidin-6(7H)-one] | 46 | 128
[2H]C([2H])([2H])n1nnc2c(-c3nc(N)c4c(n3)NC(=O)C4(C)c3ccc(Cl)cc3)nc(CCC(F)(F)C(F)(F)F)nc21 (single isomer, unassigned) [Example 70, 4-Amino-5-(4-chlorophenyl)-5-methyl-2-(5-(3,3,4,4,4-pentafluorobutyl-3-trideuteriomethyl)-3H-[1,2,3]triazolo[4,5-d]pyrimidin-7-yl)-5H-pyrrolo[2,3-d]pyrimidin-6(7H)-one] | 327 | 95
